Assay results taken from PubChem BioAssay (NCI).
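GI50 is the concentration that inhibits growth by half. At the TGI there is no net growth.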

Legend:
Test in all cases: NCI tumour cell line growth inhibition, 384-well format
[1] = test system: NCI-H522 lung
[2] = test system: SF-295 CNS
[3] = test system: OVCAR-8 ovarian
[4] = test system: SK-MEL-5 melanoma
[5] = test system: SK-OV-3 ovarian
[6] = test system: SN12C renal
[7] = test system: NCI/ADR-RES ovarian
[8] = test system: PC-3 prostate
[9] = test system: SR leukemia
[10] = test system: M14 melanoma
[11] = test system: RPMI-8226 leukemia
[12] = test system: HT29 colon
[13] = test system: IGROV1 ovarian
[14] = test system: UO-31 renal
[15] = test system: CAKI-1 renal
[16] = test system: LOX IMVI melanoma
[17] = test system: BT-549 breast
[18] = test system: DU-145 prostate
[19] = test system: RXF 393 renal
[20] = test system: A498 renal
[21] = test system: SK-MEL-2 melanoma
[22] = test system: HOP-92 NSCLC
[23] = test system: OVCAR-3 ovarian
[24] = test system: K-562 leukemia
[25] = test system: SF-268 CNS
[26] = test system: OVCAR-5 ovarian
[27] = test system: SF-539 CNS
[28] = test system: KM12 colon
[29] = test system: SNB-19 CNS
[30] = test system: 786-0 renal
[31] = test system: NCI-H226 lung
[32] = test system: MDA-MB-435 melanoma
[33] = test system: NCI-H23 lung
[34] = test system: TK-10 renal
[35] = test system: HCT-15 colon
[36] = test system: CCRF-CEM leukemia
[37] = test system: HCC-2998 colon
[38] = test system: MDA-MB-231 breast
[39] = test system: MDA-MB-468 breast
[40] = test system: U251 glioblastoma
[41] = test system: SK-MEL-28 melanoma
[42] = test system: A549 NSCLC
[43] = test system: MALME-3M melanoma
[44] = test system: HCT-116 colon
[45] = test system: SNB-75 CNS
[46] = test system: NCI-H322M lung
[47] = test system: SW-620 colon
[48] = test system: HL-60(TB) leukemia
[49] = test system: EKVX NSCLC
[50] = test system: ACHN renal
[51] = test system: COLO 205 colon
[52] = test system: NCI-H460 NSCLC
[53] = test system: UACC-62 melanoma
[54] = test system: HOP-62 NSCLC
[55] = test system: MOLT-4 leukemia
[56] = test system: OVCAR-4 ovarian
[57] = test system: MCF7 breast
[58] = test system: T-47D breast
[59] = test system: UACC-257 melanoma

## Cc1cc(C)c(S(=O)(=O)N(CCc2cccc(Br)c2)Cc2ccc(-c3cccc(S(C)(=O)=O)c3)cc2)c(C)c1
[1]
  GI50: > 100 µM
  TGI: > 100 µM
[2]
  GI50: 67.2 nM
[3]
  GI50: > 100 µM
  TGI: > 100 µM
[4]
  GI50: > 100 µM
  TGI: > 100 µM
[5]
  GI50: > 100 µM
  TGI: > 100 µM
[6]
  GI50: > 100 µM
  TGI: > 100 µM
[7]
  GI50: > 100 µM
  TGI: > 100 µM
[8]
  GI50: > 100 µM
  TGI: > 100 µM
[9]
  TGI: > 100 µM
[10]
  GI50: > 100 µM
  TGI: > 100 µM
[11]
  GI50: > 100 µM
  TGI: > 100 µM
[12]
  GI50: > 100 µM
  TGI: > 100 µM
[13]
  GI50: > 100 µM
  TGI: > 100 µM
[14]
  GI50: > 100 µM
  TGI: > 100 µM
[15]
  GI50: > 81.9 µM
  TGI: > 100 µM
[16]
  GI50: > 100 µM
  TGI: > 100 µM
[17]
  GI50: > 100 µM
  TGI: > 100 µM
[18]
  GI50: > 100 µM
  TGI: > 100 µM
[19]
  GI50: > 100 µM
  TGI: > 100 µM
[20]
  GI50: > 100 µM
  TGI: > 100 µM
[21]
  GI50: > 100 µM
  TGI: > 100 µM
[22]
  GI50: > 100 µM
  TGI: > 100 µM
[23]
  GI50: > 100 µM
  TGI: > 100 µM
[24]
  GI50: > 100 µM
  TGI: > 100 µM
[25]
  GI50: > 100 µM
  TGI: > 100 µM
[26]
  GI50: > 100 µM
  TGI: > 100 µM
[27]
  GI50: > 100 µM
  TGI: > 100 µM
[28]
  GI50: > 100 µM
  TGI: > 100 µM
[29]
  GI50: > 100 µM
  TGI: > 100 µM
[30]
  GI50: > 100 µM
  TGI: > 100 µM
[31]
  GI50: > 100 µM
  TGI: > 100 µM
[32]
  GI50: > 100 µM
  TGI: > 100 µM
[33]
  GI50: > 100 µM
  TGI: > 100 µM
[34]
  GI50: > 100 µM
  TGI: > 100 µM
[35]
  GI50: > 100 µM
  TGI: > 100 µM
[36]
  GI50: > 100 µM
  TGI: > 100 µM
[37]
  GI50: > 100 µM
  TGI: > 100 µM
[38]
  GI50: > 100 µM
  TGI: > 100 µM
[39]
  GI50: > 100 µM
  TGI: > 100 µM
[40]
  GI50: > 100 µM
  TGI: > 100 µM
[41]
  GI50: > 100 µM
  TGI: > 100 µM
[42]
  GI50: > 100 µM
  TGI: > 100 µM
[43]
  GI50: > 100 µM
  TGI: > 100 µM
[44]
  GI50: > 100 µM
  TGI: > 100 µM
[45]
  GI50: > 100 µM
  TGI: > 100 µM
[46]
  GI50: > 100 µM
  TGI: > 100 µM
[47]
  GI50: > 100 µM
  TGI: > 100 µM
[48]
  TGI: > 100 µM
[49]
  GI50: > 100 µM
  TGI: > 100 µM
[50]
  GI50: > 100 µM
  TGI: > 100 µM
[51]
  GI50: > 100 µM
  TGI: > 100 µM
[52]
  GI50: > 100 µM
  TGI: > 100 µM
[53]
  GI50: > 100 µM
  TGI: > 100 µM
[54]
  GI50: > 100 µM
  TGI: > 100 µM
[55]
  GI50: > 100 µM
  TGI: > 100 µM
[56]
  GI50: > 100 µM
  TGI: > 100 µM
[57]
  GI50: > 100 µM
  TGI: > 100 µM
[58]
  GI50: > 100 µM
  TGI: > 100 µM
[59]
  GI50: > 100 µM
  TGI: > 100 µM
